Like-named read-outs stand apart in the source and are kept apart here.
Experiments:
Format in all cases: biochemical
[1] = target: T1, mitochondrial complex I (NADH-ubiquinone reductase; NADH-decyl rhodoquinone reductase) (Echinococcus multilocularis, UniProt Q9TE76); assay: spectrophotometric NADH-quinone reductase assay, mitochondrial fraction; conditions: quinone acceptor decyl rhodoquinone (methods; table heads it NADH-ubiquinone reductase), 30 mM potassium phosphate, 1 mM MgCl2, pH 7.5, 25 °C
T1 construct: gene ND1; native multi-subunit complex I in freeze-thawed enriched mitochondrial fraction of protoscoleces; not purified
T1 sequence (Q9TE76 1-297): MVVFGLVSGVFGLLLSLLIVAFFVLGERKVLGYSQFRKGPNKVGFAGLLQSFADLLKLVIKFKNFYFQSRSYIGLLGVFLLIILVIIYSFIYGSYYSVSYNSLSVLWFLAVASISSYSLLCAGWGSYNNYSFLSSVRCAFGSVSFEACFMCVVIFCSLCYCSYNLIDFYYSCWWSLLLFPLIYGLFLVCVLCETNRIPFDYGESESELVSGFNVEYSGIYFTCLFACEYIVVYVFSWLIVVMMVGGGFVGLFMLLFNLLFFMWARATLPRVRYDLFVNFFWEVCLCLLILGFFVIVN
T1 sequence (A0A068Y9L9 30-218 partner): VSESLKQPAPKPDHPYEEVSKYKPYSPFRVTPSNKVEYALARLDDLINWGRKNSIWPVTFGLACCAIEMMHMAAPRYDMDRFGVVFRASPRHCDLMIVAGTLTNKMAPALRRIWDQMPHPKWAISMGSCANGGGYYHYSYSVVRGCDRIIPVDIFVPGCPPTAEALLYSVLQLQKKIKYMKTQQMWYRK
T1 sequence (A0A068YF50 31-207 partner): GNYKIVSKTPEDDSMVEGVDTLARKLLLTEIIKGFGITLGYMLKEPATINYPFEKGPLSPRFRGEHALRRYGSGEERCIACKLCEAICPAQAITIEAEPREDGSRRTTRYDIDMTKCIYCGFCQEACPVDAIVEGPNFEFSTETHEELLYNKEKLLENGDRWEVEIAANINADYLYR
Excerpt: spectrophotometric NADH-quinone reductase assay, mitochondrial fraction on mitochondrial complex I (NADH-ubiquinone reductase; NADH-decyl rhodoquinone reductase)

[2] = target: T2, mitochondrial complex II (succinate-quinone reductase, SQR) (Echinococcus multilocularis, UniProt A0A1Z4EAV8+A0A1Z4EAW8+A0A1Z4EAX0+A0A1Z4EAX1); assay: spectrophotometric succinate-quinone reductase assay, mitochondrial fraction; conditions: 30 mM potassium phosphate, 1 mM MgCl2, pH 7.5, 25 °C
T2 construct: gene SDHB1; native complex II in freeze-thawed enriched mitochondrial fraction of protoscoleces; not purified
T2 sequence (A0A1Z4EAX0 21-272): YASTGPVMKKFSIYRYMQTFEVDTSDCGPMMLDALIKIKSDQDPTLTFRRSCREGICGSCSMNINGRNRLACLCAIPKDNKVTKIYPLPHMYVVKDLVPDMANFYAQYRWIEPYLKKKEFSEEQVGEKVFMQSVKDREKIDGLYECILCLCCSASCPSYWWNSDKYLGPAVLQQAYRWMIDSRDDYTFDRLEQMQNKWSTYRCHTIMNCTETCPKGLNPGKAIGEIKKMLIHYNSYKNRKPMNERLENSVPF
T2 sequence (A0A1Z4EAX1 53-194): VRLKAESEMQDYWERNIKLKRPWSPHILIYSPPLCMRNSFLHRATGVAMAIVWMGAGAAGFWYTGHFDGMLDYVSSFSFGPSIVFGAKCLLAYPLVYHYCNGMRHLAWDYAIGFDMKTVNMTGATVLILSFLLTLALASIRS
T2 sequence (A0A1Z4EAW8 47-153): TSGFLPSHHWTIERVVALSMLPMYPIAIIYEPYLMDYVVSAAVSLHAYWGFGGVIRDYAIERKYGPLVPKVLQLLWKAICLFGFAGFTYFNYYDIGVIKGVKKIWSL
T2 sequence (A0A1Z4EAV8 26-648): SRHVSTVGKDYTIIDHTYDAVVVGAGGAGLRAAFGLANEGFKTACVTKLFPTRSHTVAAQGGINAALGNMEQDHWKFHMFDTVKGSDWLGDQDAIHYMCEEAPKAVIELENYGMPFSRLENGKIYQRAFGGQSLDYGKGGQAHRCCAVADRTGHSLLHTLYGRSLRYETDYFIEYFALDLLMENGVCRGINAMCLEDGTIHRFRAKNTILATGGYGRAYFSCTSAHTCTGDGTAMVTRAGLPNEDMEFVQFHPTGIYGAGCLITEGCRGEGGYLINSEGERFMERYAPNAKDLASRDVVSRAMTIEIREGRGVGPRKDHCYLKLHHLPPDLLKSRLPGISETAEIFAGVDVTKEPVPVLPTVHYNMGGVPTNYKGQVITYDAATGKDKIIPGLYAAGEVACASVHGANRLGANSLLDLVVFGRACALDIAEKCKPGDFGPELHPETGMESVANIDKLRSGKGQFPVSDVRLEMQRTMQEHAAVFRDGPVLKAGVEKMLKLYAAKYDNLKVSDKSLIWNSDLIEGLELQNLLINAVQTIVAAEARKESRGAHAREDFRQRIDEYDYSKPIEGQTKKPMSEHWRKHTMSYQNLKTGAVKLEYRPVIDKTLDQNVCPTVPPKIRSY
Excerpt: spectrophotometric succinate-quinone reductase assay, mitochondrial fraction on mitochondrial complex II (succinate-quinone reductase, SQR)

[3] = target: T3, succinate-cytochrome c reductase (mitochondrial complexes II and III) (Echinococcus multilocularis, UniProt Q9TE80); assay: spectrophotometric succinate-cytochrome c reductase assay, mitochondrial fraction; conditions: coupled complex II and III activity, 30 mM potassium phosphate, 1 mM MgCl2, pH 7.5, 25 °C
T3 construct: gene Cytb; coupled activity of native complexes II and III in freeze-thawed enriched mitochondrial fraction of protoscoleces; not purified; with Succinate dehydrogenase [ubiquinone] flavoprotein subunit, mitochondrial; Succinate dehydrogenase [ubiquinone] iron-sulfur subunit, mitochondrial; Succinate dehydrogenase [ubiquinone] cytochrome b large subunit, mitochondrial; Succinate dehydrogenase [ubiquinone] cytochrome b small subunit, mitochondrial
T3 sequence (Q9TE80 1-355): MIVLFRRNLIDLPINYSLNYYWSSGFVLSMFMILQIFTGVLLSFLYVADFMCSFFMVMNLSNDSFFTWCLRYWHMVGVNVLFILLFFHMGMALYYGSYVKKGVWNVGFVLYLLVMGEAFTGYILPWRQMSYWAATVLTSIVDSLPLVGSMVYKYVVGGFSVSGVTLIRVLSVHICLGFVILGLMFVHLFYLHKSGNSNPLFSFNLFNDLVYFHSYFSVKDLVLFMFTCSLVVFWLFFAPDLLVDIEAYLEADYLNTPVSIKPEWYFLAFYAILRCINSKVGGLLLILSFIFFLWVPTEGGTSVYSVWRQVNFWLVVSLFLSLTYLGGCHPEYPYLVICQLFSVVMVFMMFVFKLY
T3 sequence (Q9GP40 whole entry partner): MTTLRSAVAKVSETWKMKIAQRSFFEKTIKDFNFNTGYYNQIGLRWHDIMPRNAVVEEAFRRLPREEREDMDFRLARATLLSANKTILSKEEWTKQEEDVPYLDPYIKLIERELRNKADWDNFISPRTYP
T3 sequence (A0A1Z4EAV8 26-648 partner): as the sequence (A0A1Z4EAV8 26-648) above
T3 sequence (A0A1Z4EAX0 21-272 partner): as the sequence (A0A1Z4EAX0 21-272) above
T3 sequence (A0A1Z4EAX1 53-194 partner): as the sequence (A0A1Z4EAX1 53-194) above
T3 sequence (A0A1Z4EAW8 47-153 partner): as the sequence (A0A1Z4EAW8 47-153) above
Excerpt: spectrophotometric succinate-cytochrome c reductase assay, mitochondrial fraction on succinate-cytochrome c reductase (mitochondrial complexes II and III)

[4] = read-out: NADH-ubiquinone reductase / (Complex I)
[5] = read-out: Succinate-quinone reductase: SQR / (Complex II)

Row | SMILES | IC50 [1] [µM] | IC50 [2, 4] [µM] | IC50 [3, 4] [µM] | IC50 [2, 5] [µM] | IC50 [3, 5] [µM]
1 | C[C@@H]1CC[C@H]2[C@@H](C)C(=O)O[C@@H]3O[C@@]4(C)CC[C@@H]1[C@]32OO4 [artemisinin] | > 40 | > 40 | > 40 |  | 
2 | Cc1cc(/C=C/c2ccc3cc(N(C)C)ccc3[n+]2C)c(C)n1-c1ccccc1 [pyrvinium pamoate] | 11 ± 0.3 |  |  | > 30 | > 30
